Reference: patent EP2285386B1, “Use of ribose in the treatment of restless legs syndrome” (RiboCor, Inc., priority 2008, dated 2009)
Where two headings read alike, the source gives them in different places.

Legend:
[1] = test system: two familial males with RLS; assay: Restless Legs Syndrome case study: oral D-ribose at three dosing regimens, symptom diary; assay type: in vivo, human; settings: three weeks
Source text: We present a report on two familial males with RLS in which the supplementation of D-ribose produced a benefit in lessening the occurrence and severity of their daily symptoms. Both affected male individuals were from a positive family prevalence, three generations carrying the diagnosis of RLS. These males involved the latter two generations, parent and child, respectively. Both men had no underlying medical conditions. Their symptoms of RLS date back for decades and presently have progressed to the moderate to severe discomfort stage, mainly experienced during sedentary periods throughout the day with exacerbation of symptoms during nocturnal sleep.
Both individuals were introduced to D-ribose. To evaluate any potential benefits of D-ribose in RLS, each individual orally consumed D-ribose (five grams per dose) daily at different trial dosing regimens. Each trial dosing regimen lasted for three weeks with a two week interval washout between dosing regimens. The initial regimen involved a single dose of oral D- ribose consumed only at breakfast. The second dosing regimen involved consumption of oral D-ribose at breakfast and lunch. In the last dosing regiment, oral D-ribose was taken with all meals, breakfast, lunch and dinner. A diary pertaining to the documentation and severity of RLS symptoms was compiled.
The two week washout period between stages was designed to observe any return or worsening of their symptoms. […] Following completion of all dosing regimens of oral D-ribose and with the final wash out period, both males elected to re-start oral dosing of D-ribose at 5 grams/doses three times a day.

[2] = human, in vivo, iv, cited from earlier work
[3] = second regimen: oral, five grams at breakfast and lunch

## O=C[C@H](O)[C@H](O)[C@H](O)CO [D-Ribose]
[1]; initial regimen: oral, five grams single dose at breakfast
  energy and fatigue: general feeling of more energy and less fatigue
[1]; [3]
  leg twitching events and the urge to move during the day: reduced for one of the subjects and rarely present in the other
  unpleasant sensations during the night: Both still experienced the unpleasant sensations during the night
[2]; 60 mg/kg
  D-Ribose levels in the serum: approximately 25 mg/dl
  half-life of D-Ribose in the serum: 11 min
[2]; 100 mg/kg
  D-Ribose levels in the serum: approximately 25 mg/dl
  half-life of D-Ribose in the serum: 16 min
[2]; 222.2 mg/kg
  serum level: ≤ 86 mg/dL
[2]
  serum levels: ≤ 60 mg/dL
